According to patent US20080228069A1, “Novel Differential Imaging Method” (MEDIPHYSICS, INC., priority 2003, published 2008):

How the values were obtained:
[1] = tested on: SK—N—SH human neuroblastoma cells; conditions: over activity range; cited from earlier work
[2] = cited from earlier work
[3] = tested on: myocardial uptake of ^123I mIBG; assay: ^123I mIBG imaging with and without amitryptaline; type: in vivo, human
Description: 4 patients with movement disorders and aged between 66 and 75 were selected for this study. Neurological examination raised the differential diagnosis between essential tremor and Parkinson's disease. Prior to the study, none of the patients was taking any medication known to interfere with mIBG uptake. In all patients two ^123I mIBG scans were performed, one of which was performed after administration of a single oral dose of 25 mg amitryptaline one hour prior to ^123I mIBG administration. The imaging protocol was carried out for both scans as described in the following paragraphs.
The patients were treated with 200-500 mg of potassium perchlorate 30 minutes before injection of ^123I mIBG. […]
Anterior planar images of the thorax were obtained at 15 minutes and at 4 hours after ^123I mIBG injection with the subject in a supine position. The gamma camera (GE Millenium) was equipped with a low-energy, parallel-hole, general purpose collimator, and a 20% energy window on 159 KeV if ^123I is used.
SPECT was performed with collection of 32 projections of 30-60 seconds each, acquired over 180° orbit, with 3°-6° angle interval in a 64×64 matrix starting in the 45° right anterior oblique projection and finishing in the 45° left posterior oblique projection.
Studies were reconstructed using a Butterworth filtered backprojection technique. Three tomographic images were obtained from the SPECT study, i.e. vertical long axis slices, short axis slices, and horizontal long axis slices. Bull's eye polar map was generated from the apical to the basal short axis slices to show relative tracer distribution in the myocardium. Reconstruction was performed without attenuation and scatter correction.
The parameters used for quantification of myocardial ^123I-mIBG activity were heart to mediastinum ratio (HMR) and myocardial washout rate (WR). […] The WR is calculated by dividing the product of […] by myocardial counts at 15 minutes and multiplying by 100. […]

Structure (SMILES): NC(N)=NCc1ccc(F)c(I)c1 [^18F-FIBG]
- percent binding to SK—N—SH human neuroblastoma cells [1]: remained constant over a 3-log activity range
- uptake in mouse heart and adrenals [2]: Specific and high uptake

Structure (SMILES): CN(C)CCC=C1c2ccccc2CCc2ccccc21 [amitryptaline]
- myocardial uptake of ^123I mIBG when amitryptaline was administered before ^123I mIBG ([3]; FIG. 3, two of the four subjects, single oral dose of 25 mg amitryptaline one hour prior to ^123I mIBG): marked decrease
- difference in the myocardial uptake of ^123I mIBG following administration of amitryptaline ([3]; FIG. 4, the other two subjects, single oral dose of 25 mg amitryptaline one hour prior to ^123I mIBG): no notable difference
- uptake of ^123I mIBG in the stress image ([3]; half of the patients imaged (4 patients), adrenergic interfering agent amitryptaline): Reduced uptake
